US10897901B2, “Herbicidal composition” (FMC Corporation, priority 2007, dated 2021)

Experiments:
Type in all cases: in vivo
[1] = test system: Yellow Nutsedge (Cyperus esculentus); assay: Example 2 post-emergent turf plot test, nutsedge; settings: 0.57 lb ai/acre
Description: (§1) The experimental design used randomized plots with post-emergent treatment and three replications per test trial. The size of each experimental plot was 4 feet by 6 feet. The application of each test composition was performed with pressurized back-pack sprayers, calibrated to spray 200 gallons per acre. Test compositions containing sulfentrazone (DISMISS™ Turf Herbicide), quinclorac, (FACET® 75 DF herbicide) or a mixture of sulfentrazone and quinclorac in a one to three ratio, prepared as described above, were diluted with water to provide the appropriate test rate concentrations.
(§2) The control of weeds was evaluated in each experimental plot from 1 to 27 days after treatment (DAT) of each test rate. The results, shown as an average of the replications, were compared with results observed in untreated control plots in the same trials.

[2] = test system: Blackseed Plantain (Plantago rugelii); assay: Example 2 post-emergent turf plot test, plantain; settings: 0.57 lb ai/acre
Description: as §1, §2

[3] = test system: Blackseed Plantain (Plantago rugelii); assay: Example 1 post-emergent turf plot test, plantain; settings: 0.57 lb ai/acre
Description: (§3) The experimental design used randomized plots with post-emergent treatment and three replications per test trial. The size of each experimental plot was 4 feet by 6 feet. The application of each test composition was performed with pressurized back-pack sprayers, calibrated to spray 200 gallons per acre. Test compositions containing sulfentrazone (DISMISS™ Turf Herbicide), quniclorac, (FACET® 75 DF herbicide) or a mixture of sulfentrazone and quinclorac in a 1:3 ratio, prepared as described above, were diluted with water to provide the appropriate test rate concentrations.
(§4) The control of weeds was evaluated in each experimental plot from 7 to 41 days after treatment (DAT) of each test rate. The results, shown as an average of the replications, were compared with results observed in untreated control plots in the same trials.

[4] = test system: White Clover (Trifolium repens); assay: Example 2 post-emergent turf plot test, clover; settings: 0.57 lb ai/acre
Description: as §1, §2

[5] = test system: White Clover (Trifolium repens); assay: Example 1 post-emergent turf plot test, clover; settings: 0.57 lb ai/acre
Description: as §3, §4

[6] = test system: Red River crabgrass (Digitaria ciliaris); assay: Example 3 post-emergence greenhouse pot test, crabgrass
Description: Test compositions containing sulfentrazone (DISMISS™ Turf Herbicide), quniclorac, (DRIVE® 75 DF Herbicide) or mixture of sulfentrazone and quinclorac in a three to one ratio, prepared as described above, were diluted with water to provide the appropriate test rate concentrations. A nonionic surfactant (0.25%) was added to each test solution.
The test weeds include Red River crabgrass (Digitaria ciliaris) and yellow nutsedge (Cyperus esculentusi).
For post-emergence testing, three disposable 3 inch square pots for each rate of application of each herbicide were filled with a soil, comprised of peat moss, vermiculite, bark ash, pine bark, limestone and a wetting agent, to which 8 to 10 seeds were planted. The pots were placed in a greenhouse and watered daily, thus allowing the seeds to germinate and the foliage to develop.
Pots designated for treatment were placed on a conveyor belt and the conveyor belt fed under a spray nozzle mounted about ten inches above the foliage. The spray of herbicidal solution was commenced and once stabilized; the pots were passed under the spray at a speed to receive a coverage equivalent of 30 gallons per acre. The application rates are those shown in Table 3 below for the individual herbicidal solutions and the mixture of sulfentrazone and quinclorac. The post-emergence pots were immediately placed in the green-house and not watered until 24 hours after treatment with the test solution. Thereafter they were regularly watered at ground level. The control of weeds was evaluated in each experimental test from 1 to 22 days after treatment (DAT). The results, shown as an average of the replications, were compared with results observed in untreated control pots in the same tests.
Percent control was determined by a method similar to the 0 to 100 rating system disclosed in “Research Methods in Weed Science,” 2nd ed., B. Truelove, Ed.; Southern Weed Science Society; Auburn University, Auburn, Ala., 1977.

[7] = test system: Yellow Nutsedge (Cyperus esculentus); assay: Example 1 post-emergent turf plot test, nutsedge; settings: 0.57 lb ai/acre
Description: as §3, §4

Compound: Cc1nn(-c2cc(NS(C)(=O)=O)c(Cl)cc2Cl)c(=O)n1C(F)F [A, N-[2,4-dichloro-5-[4-(difluoromethyl)-4,5-dihydro-3-methyl-5-oxo-1H-1,2,4-triazol-1-yl]phenyl]methanesulfonamide]
- Percent Control ([1]; 7 DAT): 100%
- Percent Control ([1]; 14 DAT): 100%
- Percent Control ([1]; 21 DAT): 100%
- Percent Control ([2]; 7 DAT): 100%
- Percent Control ([2]; 14 DAT): 100%
- Percent Control ([2]; 21 DAT): 100%
- Percent Control ([3]; 7 DAT): 83%
- Percent Control ([3]; 14 DAT): 88%
- Percent Control ([3]; 21 DAT): 100%
- Percent Control ([3]; 28 DAT): 100%
- Percent Control ([4]; 7 DAT): 45%
- Percent Control ([4]; 14 DAT): 74%
- Percent Control ([4]; 21 DAT): 68%
- Percent Control ([5]; 7 DAT): 59%
- Percent Control ([5]; 14 DAT): 63%
- Percent Control ([5]; 21 DAT): 59%
- Percent Control ([5]; 28 DAT): 52%
- Percent Control ([6]; 1-2 leaf stage, 11 days old, 0.125 lb ai/acre, 1 DAT): 50%
- Percent Control ([6]; 1-2 leaf stage, 11 days old, 0.125 lb ai/acre, 3 DAT): 60%
- Percent Control ([6]; 1-2 leaf stage, 11 days old, 0.125 lb ai/acre, 7 DAT): 50%
- Percent Control ([6]; 1-2 leaf stage, 11 days old, 0.125 lb ai/acre, 14 DAT): 40%
- Percent Control ([6]; 1-2 leaf stage, 11 days old, 0.125 lb ai/acre, 21 DAT): 30%
- Percent Control ([6]; 1-2 leaf stage, 11 days old, 0.25 lb ai/acre, 1 DAT): 60%
- Percent Control ([6]; 1-2 leaf stage, 11 days old, 0.25 lb ai/acre, 3 DAT): 70%
- Percent Control ([6]; 1-2 leaf stage, 11 days old, 0.25 lb ai/acre, 7 DAT): 50%
- Percent Control ([6]; 1-2 leaf stage, 11 days old, 0.25 lb ai/acre, 14 DAT): 20%
- Percent Control ([6]; 1-2 leaf stage, 11 days old, 0.25 lb ai/acre, 21 DAT): 5%
- Percent Control ([6]; 1-2 leaf stage, 11 days old, 0.375 lb ai/acre, 1 DAT): 50%
- Percent Control ([6]; 1-2 leaf stage, 11 days old, 0.375 lb ai/acre, 3 DAT): 70%
- Percent Control ([6]; 1-2 leaf stage, 11 days old, 0.375 lb ai/acre, 7 DAT): 50%
- Percent Control ([6]; 1-2 leaf stage, 11 days old, 0.375 lb ai/acre, 14 DAT): 20%
- Percent Control ([6]; 1-2 leaf stage, 11 days old, 0.375 lb ai/acre, 21 DAT): 10%
- Percent Control ([6]; 3-4 leaf stage, 1-2 tillers, 14 days old, 0.125 lb ai/acre, 1 DAT): 25%
- Percent Control ([6]; 3-4 leaf stage, 1-2 tillers, 14 days old, 0.125 lb ai/acre, 3 DAT): 25%
- Percent Control ([6]; 3-4 leaf stage, 1-2 tillers, 14 days old, 0.125 lb ai/acre, 7 DAT): 30%
- Percent Control ([6]; 3-4 leaf stage, 1-2 tillers, 14 days old, 0.125 lb ai/acre, 14 DAT): 10%
- Percent Control ([6]; 3-4 leaf stage, 1-2 tillers, 14 days old, 0.125 lb ai/acre, 21 DAT): 5%
- Percent Control ([6]; 3-4 leaf stage, 1-2 tillers, 14 days old, 0.25 lb ai/acre, 1 DAT): 25%
- Percent Control ([6]; 3-4 leaf stage, 1-2 tillers, 14 days old, 0.25 lb ai/acre, 3 DAT): 25%
- Percent Control ([6]; 3-4 leaf stage, 1-2 tillers, 14 days old, 0.25 lb ai/acre, 7 DAT): 30%
- Percent Control ([6]; 3-4 leaf stage, 1-2 tillers, 14 days old, 0.25 lb ai/acre, 14 DAT): 12%
- Percent Control ([6]; 3-4 leaf stage, 1-2 tillers, 14 days old, 0.25 lb ai/acre, 21 DAT): 5%
- Percent Control ([6]; 3-4 leaf stage, 1-2 tillers, 14 days old, 0.375 lb ai/acre, 1 DAT): 20%
- Percent Control ([6]; 3-4 leaf stage, 1-2 tillers, 14 days old, 0.375 lb ai/acre, 3 DAT): 20%
- Percent Control ([6]; 3-4 leaf stage, 1-2 tillers, 14 days old, 0.375 lb ai/acre, 7 DAT): 22%
- Percent Control ([6]; 3-4 leaf stage, 1-2 tillers, 14 days old, 0.375 lb ai/acre, 14 DAT): 0%
- Percent Control ([6]; 3-4 leaf stage, 1-2 tillers, 14 days old, 0.375 lb ai/acre, 21 DAT): 0%
- Percent Control ([7]; 7 DAT): 50%
- Percent Control ([7]; 14 DAT): 75%
- Percent Control ([7]; 21 DAT): 89%
- Percent Control ([7]; 28 DAT): 91%
